Measurements taken from PubChem BioAssay AID328 (DTP/NCI, 2004).
Where “and” joins values, the source holds several entries; their conditions need not be identical. Identical values can stand only once. Toxic doses and inconclusive results are not listed. The calls were made as follows: active = survival T/C of 150% or more; inactive = T/C below 125% in these data.

Test system: BDF1 mice, P388 leukemia ip, median survival T/C
Experiment: NCI In Vivo Anticancer Drug Screen. Data for tumor model P388 Leukemia (intraperitoneal) in B6D2F1 (BDF1) mice
Details: endpoint: median survival time, higher = longer survival
In short: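 Survival ratio, drug arm over vehicle arm, in mice with a transplanted tumour.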

[1] = dose: 12.5 mg/kg/injection, schedule: Q01DX009 (ip), vehicle: saline
[2] = dose: 50.0 mg/kg/injection, schedule: Q01DX009 (ip), vehicle: saline
[3] = dose: 50.0 mg/kg/injection, schedule: Q01DX009 (ip), vehicle: saline with Tween-80
[4] = dose: 100.0 mg/kg/injection, schedule: Q01DX009 (ip), vehicle: saline with Tween-80
[5] = dose: 200.0 mg/kg/injection, schedule: Q01DX009 (ip), vehicle: saline with Tween-80
[6] = dose: 25.0 mg/kg/injection, schedule: Q01DX009 (ip), vehicle: saline
[7] = dose: 100.0 mg/kg/injection, schedule: Q01DX009 (ip), vehicle: saline
[8] = dose: 200.0 mg/kg/injection, schedule: Q01DX009 (ip), vehicle: saline
[9] = dose: 100.0 mg/kg/injection, schedule: Q01DX001 (ip), vehicle: saline with Tween-80

Measured: T/C

COc1ccc2c(c1)/C(=C/CCN(C)C)c1ccccc1S2
inactive: [1] 109 % of control | dose: 16.5 mg/kg/injection, schedule: Q01DX009 (ip), vehicle: saline 118 % of control | dose: 37.5 mg/kg/injection, schedule: Q01DX009 (ip), vehicle: saline 95 % of control | [2] 118 % of control

CCOC(=O)c1nnc(C)[nH]c1=O
inactive: [3] 103 % of control | [4] 103 % of control | [5] 98 % of control

NC1=NNC(N)=NN1
inactive: [1] 94 % of control | [6] 100 % of control | [2] 96 % of control

COc1cc(-c2cc(=O)c3c(OC)c(OC)c(OC)c(OC)c3o2)cc2c1OCO2
inactive: dose: 100.0 mg/kg/injection, schedule: Q04DX002 (ip), vehicle: Klucel (hydroxypropylcellulose) (HPC) 97 % of control | dose: 200.0 mg/kg/injection, schedule: Q04DX002 (ip), vehicle: Klucel (hydroxypropylcellulose) (HPC) 103 % of control | dose: 400.0 mg/kg/injection, schedule: Q04DX002 (ip), vehicle: Klucel (hydroxypropylcellulose) (HPC) 97 % of control

N#CCCN(C(=S)Nc1ccc(Cl)c(Cl)c1)C1CCCCC1
inactive: [3] 98 % of control and 117 % of control | [4] 100 % of control and 119 % of control | [5] 103 % of control and 119 % of control | dose: 400.0 mg/kg/injection, schedule: Q01DX009 (ip), vehicle: saline with Tween-80 106 % of control

Nc1cc(Cl)ccc1O
inactive: [2] 114 % of control | [7] 97 % of control | [8] 116 % of control

CCCCCCCCCCCCCCCCS(=O)(=O)N/N=C/C(=O)O
inactive: dose: 12.5 mg/kg/injection, schedule: Q01DX009 (ip), vehicle: other 116 % of control

O=C(c1ccccc1)N(Nc1ccccc1)c1ccccc1
inactive: dose: 100.0 mg/kg/injection, schedule: Q01DX009 (ip), vehicle: Klucel (hydroxypropylcellulose) (HPC) 95 % of control | dose: 100.0 mg/kg/injection, schedule: Q04DX003 (ip), vehicle: Klucel (hydroxypropylcellulose) (HPC) 100 % of control | dose: 200.0 mg/kg/injection, schedule: Q01DX009 (ip), vehicle: Klucel (hydroxypropylcellulose) (HPC) 109 % of control | dose: 200.0 mg/kg/injection, schedule: Q04DX003 (ip), vehicle: Klucel (hydroxypropylcellulose) (HPC) 100 % of control | dose: 400.0 mg/kg/injection, schedule: Q01DX009 (ip), vehicle: Klucel (hydroxypropylcellulose) (HPC) 95 % of control | dose: 400.0 mg/kg/injection, schedule: Q04DX003 (ip), vehicle: Klucel (hydroxypropylcellulose) (HPC) 100 % of control

Cc1ccc(C)c2c1[nH]c1c(C)c3ccncc3c(C)c12
inactive: dose: 25.0 mg/kg/injection, schedule: Q01DX001 (ip), vehicle: saline with Tween-80 101 % of control | dose: 50.0 mg/kg/injection, schedule: Q01DX001 (ip), vehicle: saline with Tween-80 91 % of control | [9] 96 % of control

CC1C(=O)OC2CC[N+]3([O-])CC=C(COC(=O)C(C)(O)C1(C)O)C23 (configuration not stated)
inactive: dose: 100.0 mg/kg/injection, schedule: Q01DX010 (ip), vehicle: saline 100 % of control | dose: 400.0 mg/kg/injection, schedule: Q01DX010 (ip), vehicle: saline 110 % of control

COc1ccc(CNc2cc(C(O)CNC(C)(C)C)ccc2O)cc1 (configuration not stated)
inactive: dose: 6.25 mg/kg/injection, schedule: Q01DX009 (ip), vehicle: saline with Tween-80 105 % of control | dose: 12.5 mg/kg/injection, schedule: Q01DX009 (ip), vehicle: saline with Tween-80 102 % of control | dose: 25.0 mg/kg/injection, schedule: Q01DX009 (ip), vehicle: saline with Tween-80 114 % of control

COc1ccc2nc(N)n(C(=O)c3ccccc3)c(=O)c2c1
inactive: [9] 101 % of control | dose: 200.0 mg/kg/injection, schedule: Q01DX001 (ip), vehicle: saline with Tween-80 109 % of control | dose: 400.0 mg/kg/injection, schedule: Q01DX001 (ip), vehicle: saline with Tween-80 109 % of control

[NH-]CC[S-].[NH-]CC[S-].[NH-]CC[S-].[NH-]CC[S-].[Ni+2].[Ni+2].[Ni]
inactive: dose: 2.0 mg/kg/injection, schedule: Q01DX009 (ip), vehicle: saline 105 % of control | dose: 3.12 mg/kg/injection, schedule: Q04DX003 (ip), vehicle: saline 100 % of control | dose: 4.0 mg/kg/injection, schedule: Q01DX009 (ip), vehicle: saline 100 % of control | dose: 8.0 mg/kg/injection, schedule: Q01DX009 (ip), vehicle: saline 98 % of control | dose: 16.0 mg/kg/injection, schedule: Q01DX009 (ip), vehicle: saline 87 % of control and 117 % of control

COc1ccc(/C=C/C(=O)c2ccc(OC)c(OC)c2)cc1O
inactive: [6] 108 % of control | [2] 101 % of control | dose: 50.0 mg/kg/injection, schedule: Q04DX003 (ip), vehicle: saline 107 % of control | [7] 106 % of control | dose: 100.0 mg/kg/injection, schedule: Q04DX003 (ip), vehicle: saline 110 % of control | [8] 90 % of control | dose: 200.0 mg/kg/injection, schedule: Q04DX003 (ip), vehicle: saline 107 % of control | dose: 400.0 mg/kg/injection, schedule: Q01DX009 (ip), vehicle: saline 99 % of control | dose: 400.0 mg/kg/injection, schedule: Q04DX003 (ip), vehicle: saline 124 % of control
